Measurements as given in paper PMC8667888, “Discovery of a novel Aurora B inhibitor GSK650394 with potent anticancer and anti-aspergillus fumigatus dual efficacies in vitro” (Journal of Enzyme Inhibition and Medicinal Chemistry, 2021).
Values joined by “and” are separate entries in the source; they are usually repeats but may differ in a detail not shown here. Equal entries are not always repeated.

Experiments:
human Aurora B [1] = molecular target: T1, human Aurora B (Homo sapiens, UniProt Q96GD4); test: Luciferase-coupled ATP assay (ATPase activity), human Aurora B; type: biochemical
T1 construct: the Hs.Aurora B kinase domain (aa.70–344) was co-expressed in E. coli cells; made in house; host or cells: E. coli BL21 (DE3) pLysS
Experimental: (§1) The pGEX-dual expression plasmid containing human (Hs.) Aurora B kinase domain (aa.54–344) and a C-terminal fragment of Hs.INCENP (aa.835–904) was obtained from Prof. Hongtao Yu (Department of Life Science, Westlake University). The cDNAs of Af.Aurora B kinase domain (aa.1–396, GenBank accession no. EDP54304.1) and the C-terminal fragment of Af.INCENP (aa.1200–1297, GenBank accession no. XP_033417438.1) was synthesised in Union Biotech (China). Protein expression and purification were performed as previously described. Briefly, The recombinant proteins of Aurora B and INCENP were coexpressed in BL21 (DE3) pLysS competent cells. For protein purification, cells co-expressing GST-INCENP and Aurora B proteins were resuspended with lysis buffer containing 50 mM Tris-HCl, pH 8.0, 200 mM NaCl, 5% glycerol, and 0.05% Triton X-100. Cells were disrupted by French Pressure (Union Biotech, China) and the supernatants were collected after centrifugation. The Aurora B/Hs.INCENP complex proteins were pooled through Glutathione columns (Smart-Lifesciences, China). […]
(§2) A luciferase-based luminescence assay was utilised to determine the ATPase activity of Aurora B according to the manufacture’s protocols (Promega). […] At the end of the reaction, the Kinase-Glo reagent (Promega) was added and the ATPase activity was evaluated by luminescence measurement on the microplate reader (SpectraMax-L, Molecular Devices).

Af.Aurora B [2] = molecular target: T2, Af.Aurora B (Aspergillus fumigatus, UniProt B0XW52); test: Luciferase-coupled ATP assay (ATPase activity), Af.Aurora B; type: biochemical; settings: IC50, inhibition of ATPase activity of Af.Aurora B, recombinant Af.Aurora B, n = 3
Experimental: as §1, §2

human Haspin = molecular target: T3, human Haspin (Homo sapiens, UniProt Q8TF76); test: Luciferase-coupled ATP assay (ATPase activity), human Haspin; type: biochemical; settings: read-out: IC50, inhibition of human Haspin ATPase activity
T3 sequence (Q8TF76 1-798): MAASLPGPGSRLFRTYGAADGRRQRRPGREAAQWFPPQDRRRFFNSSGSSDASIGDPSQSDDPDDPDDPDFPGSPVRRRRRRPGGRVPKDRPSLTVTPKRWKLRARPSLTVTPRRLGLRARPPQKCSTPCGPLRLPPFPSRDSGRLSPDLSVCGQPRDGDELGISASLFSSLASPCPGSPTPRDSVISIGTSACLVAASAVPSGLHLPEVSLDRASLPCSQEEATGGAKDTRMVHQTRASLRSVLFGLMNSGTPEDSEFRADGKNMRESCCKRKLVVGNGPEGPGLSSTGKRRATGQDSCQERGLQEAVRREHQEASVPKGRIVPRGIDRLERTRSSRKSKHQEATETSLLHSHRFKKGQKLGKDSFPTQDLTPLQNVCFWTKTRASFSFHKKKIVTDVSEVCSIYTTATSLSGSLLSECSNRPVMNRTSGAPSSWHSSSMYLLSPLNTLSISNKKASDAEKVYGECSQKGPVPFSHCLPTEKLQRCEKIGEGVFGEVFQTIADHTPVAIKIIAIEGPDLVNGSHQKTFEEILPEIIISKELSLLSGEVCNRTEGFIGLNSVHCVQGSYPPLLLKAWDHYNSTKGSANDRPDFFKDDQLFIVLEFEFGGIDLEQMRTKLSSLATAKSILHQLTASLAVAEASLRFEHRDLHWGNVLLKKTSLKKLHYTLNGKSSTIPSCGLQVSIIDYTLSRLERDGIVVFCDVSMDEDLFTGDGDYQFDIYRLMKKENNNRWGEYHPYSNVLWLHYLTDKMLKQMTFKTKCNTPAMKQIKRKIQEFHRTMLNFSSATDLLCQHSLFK
Experimental: (§3) A luciferase-based luminescence assay was utilised to determine the ATPase activity of Aurora B according to the manufacture’s protocols (Promega). Briefly, the Aurora B protein was incubated with 10 µM ATP in the absence or presence of various drugs at 30 °C, in a kinase buffer containing 50 mM Tris-HCl, pH7.4, 100 mM NaCl, 10 mM MgCl2, 1 mM DTT, and 0.1% Tween20. At the end of the reaction, the Kinase-Glo reagent (Promega) was added and the ATPase activity was evaluated by luminescence measurement on the microplate reader (SpectraMax-L, Molecular Devices).
Fig. S2 Effect of GSK650394 on human Haspin. (a) Comparison of ATPase activity between Aurora B and Haspin. The luminescence of ATP only control was normalized to 1.0. The values were normalized to ATP-only control set as 100% inhibition. Values are means ± S.E., n = 3. (b) Inhibition of human Haspin ATPase […]
(1 picture or pasted object on this page, not shown here)

V91A Aurora B = molecular target: T4, V91A Aurora B (Homo sapiens, UniProt Q96GD4, V91A); test: Luciferase-coupled ATP assay, V91A mutant Aurora B; type: biochemical
T4 construct: the Hs.Aurora B kinase domain (aa.70–344) was co-expressed in E. coli cells; made in house; host or cells: E. coli BL21 (DE3) pLysS
Experimental: as §3

HepG2 = test: MTT cell proliferation assay, HepG2; type: cell-based; settings: Homo sapiens, read-out: IC50, inhibition of proliferation
Experimental: (§4) MTT assay was conducted for cell proliferation analysis. Cells were cultured in 96-well plates (6 × 10^3/well) and treated with drugs or left untreated for 24–72 h. After treatment, cells were incubated with MTT solution (0.5 mg/mL) for 4 h at 37 °C. Then, the reactions were terminated by DMSO and the optical densities were measured by absorbance at 570 nm.

LO2 = test: MTT cell proliferation assay, LO2; type: cell-based; settings: Homo sapiens, L02, read-out: IC50, inhibition of proliferation
Experimental: as §4

MCF-7 = test: MTT cell proliferation assay, MCF-7; type: cell-based; settings: Homo sapiens, MCF7; MCF-7, MTT; read-out: IC50, inhibition of proliferation
Experimental: as §4

HELF = test: MTT cell proliferation assay, HELF; type: cell-based; settings: read-out: IC50, inhibition of proliferation
Experimental: as §4

Hela = test: MTT cell proliferation assay, Hela; type: cell-based; settings: Homo sapiens, read-out: IC50, inhibition of proliferation
Experimental: as §4

[3] = test system: endogenous Aurora B in HepG2 cells; test: Histone H3 Ser10 phosphorylation in HepG2 cells (immunoblot); type: cell-based, human; settings: HepG2, 9 h after release from thymidine arrest
Experimental: (§5) HepG2 and HeLa cells were cultured in DMEM and RPMI-1640, respectively, supplemented with 10% foetal bovine serum in 37 °C and 5% CO2. G1/S synchronisation was carried out by treating cells with 2 mM of thymidine for 19 h. […] Subsequently, cells were harvested and subjected to immunoblotting or flow cytometric analysis. For flow cytometry assay, cells were trypsinized, washed once with PBS, and then fixed with cold 75% ethanol. Fixed cells were washed with PBS and resuspended in PBS containing the propidium iodide (Sigma) DNA staining solution, for 30 min at 37 °C. Then, samples were analysed using the Cytoflex cytometer (Beckman Coulter, USA) and the data were processed with the Flow Jo software.

[4] = test system: endogenous Aurora B in HeLa cells; test: Histone H3 Ser10 phosphorylation in HeLa cells (immunoblot); type: cell-based, human; settings: 9 h after release from thymidine arrest, vs control cells
Experimental: as §5

Aspergillus fumigatus = test: Anti-Aspergillus fumigatus plate assay; type: cell-based; settings: 37 °C, 30 h
Experimental: A plate assay was carried out to assess the growth rate of Aspergillus fumigatus. A specified amount of Aspergillus fumigatus spores were inoculated on the centre of the plate containing solid glucose minimal medium in the absence or presence of drugs. After further incubation for 30 h at 37 °C, the growth rate was determined by measuring the diameter of Aspergillus fumigatus clonies on each plate.

human Aurora B [5] = molecular target: T1, human Aurora B; test: In vitro kinase assay (histone H3 Ser10 phosphorylation), human Aurora B; type: biochemical; settings: Western blot
Experimental: (§6) The in vitro kinase assay was performed as previously described. The kinase activity of recombinant Aurora B was assayed by incubating 200 nM purified Aurora B/INCENP protein with 100 µM ATP and 6 µg bulk histones (from calf thymus, Sigma-Aldrich) in kinase buffer containing 50 mM Tris-HCl, pH7.4, 100 mM NaCl, 10 mM MgCl2, 1 mM DTT and 0.1% Tween20. After 15-min incubation at 30 °C, the reaction was quenched by SDS-sample buffer, separated on SDS-PAGE, and immunoblotted with anti-histone H3 and anti-histone H3 phospho-Ser10 (pS10) antibodies. The blots were scanned and quantified with the ChemiDoc™ Touch imaging system (Bio-rad). To investigate the compounds’ inhibitory effect, Aurora B was pre-incubated with DMSO or various concentrations of drugs for 15 min at room temperature and the reactions were then initialised by the addition of ATP and histone substrates.

Af.Aurora B [6] = molecular target: T2, Af.Aurora B; test: In vitro kinase assay (histone H3 phosphorylation), Af.Aurora B; type: biochemical; settings: Western blot
Experimental: as §6

[7] = test system: acute myelogenous leukaemia (AML); design: method as in PMID 23763917; settings: patients with AML, combined with low-dose cytosine arabinoside (LDAC); cited from earlier work

T1 sequence (Q96GD4 70-344): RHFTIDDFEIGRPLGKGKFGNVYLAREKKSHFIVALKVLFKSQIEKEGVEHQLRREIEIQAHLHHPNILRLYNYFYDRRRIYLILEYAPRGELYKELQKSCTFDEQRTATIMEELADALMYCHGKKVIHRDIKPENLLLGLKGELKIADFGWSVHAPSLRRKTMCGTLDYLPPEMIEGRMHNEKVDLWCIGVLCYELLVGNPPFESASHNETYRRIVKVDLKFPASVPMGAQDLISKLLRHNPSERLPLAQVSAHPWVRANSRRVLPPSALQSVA
T1 sequence (Q9NQS7 835-904 partner limits assumed): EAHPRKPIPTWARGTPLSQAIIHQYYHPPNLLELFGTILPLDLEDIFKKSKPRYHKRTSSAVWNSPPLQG
T4 sequence (Q96GD4 70-344 V91A): as the sequence (Q96GD4 70-344) above, with V22A counted along it
T4 sequence (Q9NQS7 835-904 partner limits assumed): as the sequence (Q9NQS7 835-904 partner limits assumed) above

SMILES	IC50 (human Aurora B [1]) [nM]	IC50 (Af.Aurora B [2])	IC50 (human Haspin) [nM]	reduction of inhibitory effect by mutation of Val91 (V91A Aurora B; V91A vs wild type) [fold]	IC50 (V91A Aurora B; Val91 mutant, read-out: IC50, inhibition of V91A Aurora B) [nM]	IC50 (HepG2) [nM]	IC50 (LO2) [nM]	IC50 (MCF-7) [nM]	IC50 (HELF) [nM]	IC50 (Hela) [nM]	concentration at which H3 phosphorylation is abolished [3] [µM]	effect on histone H3 phosphorylation ([3]; vs control cells)	effect on histone H3 phosphorylation [4]	growth rate of Aspergillus fumigatus (diameter of colonies) (Aspergillus fumigatus)	effect on phosphorylation of histone H3 Ser10 by Aurora B (human Aurora B [5])	effect on kinase activity of Af. Aurora B (Af.Aurora B [6])	overall response rate [7] [%]
O=C(O)c1ccc(-c2c[nH]c3ncc(-c4ccccc4)cc23)cc1C1CCCC1 [GSK650394]	5680	1290 nM and 1300 nM	41400	> 20	> 100000	1530 ± 1880	1750 ± 1280	1420 ± 1190	6140 ± 1330	3570 ± 1380	2.5	significant attenuation of histone H3 phosphorylation	significant attenuation of histone H3 phosphorylation	markedly inhibited in a dose-dependent manner	diminish the phosphorylation of histone H3 Ser10	effectively inhibits	–
CCN(CCCOc1ccc2c(Nc3cc(CC(=O)Nc4cccc(F)c4)n[nH]3)ncnc2c1)CCOP(=O)(O)O [barasertib]	–	–	–	–	–	–	–	–	–	–	–	–	–	–	–	–	45
